# Results taken from patent publication US20220144853A1, “IMIDAZOLINE DERIVATIVES AS CXCR4 MODULATORS” (Université de Paris, priority 2019, published 2022).
# Counter-ions that a name gives are not always drawn.
# Test system: IFN production by activated PBMCs
# Experiment: IFN production by R848-activated PBMCs from healthy donors, twINNE reporter cell line
# Assay type: cell-based, human
# Settings: Homo sapiens, PBMC, means of two results over 2 healthy donors, R848 5 μg/mL, IT1t: mean over all experiments, read-out: IC50 of anti-inflammatory activity (IFN production)
# Procedure: 2) The blood from healthy donors was also obtained from “Etablissement Français du Sang” (convention #19/EFS/029), Paris, France.
# In vitro experiments were performed using human peripheral blood mononuclear cells (PBMCs) isolated by density centrifugation from peripheral blood leukocyte separation medium, lymphoprep (Stemcell Technologies).
# PBMCs were cultured in RPMI 1640 (Sigma-Aldrich, MO, USA) containing 10% heat-inactivated fetal bovine serum (Sigma-Aldrich, MO, USA) at 37° C./5% CO2.
# 2) The PBMCs used herein were prepared as described in part A “immune cells preparation”, section 2) above. PBMCs were seeded at 4.10^6/mL. […] Cells were then stimulated with the TLR7/8 agonist resiquimod—R848 (Sigma-Aldrich, MO, USA) at 5 μg/mL.
# 2) To quantify the secretion of functional IFN, a biological assay based on a stable cell line where luciferase reporter gene is controlled by five Interferon-Stimulated Response Elements (twINNE cell line) was used. It is important to note that the twINNE cell line is the same as the above mentioned STING-37 cell line but with constitutively expressed nanoluciferase. First, supernatants of R848-stimulated PBMCs (see part B, section 2) above) were harvested after 24 h of stimulation and frozen at −20° C. for storage. Then, supernatants were dispensed in culture wells of a 96-well plate containing 35.103 twINNE cells per well in Dulbecco's Modified Eagle's Medium supplemented with 10% Foetal Bovine Serum, 100 U/mL Penicillin and 100 μg/mL Streptomycin (1% Pen-Strep) and 1 mM glutamine (Sigma-Aldrich, MO, USA) at 37° C./5% […]. After 24 h of culture, luciferase activity was determined by adding 60 μL of Bright-Go reagents (Promega, Wisconsin, USA) to culture wells and measuring bioluminescence with EnSpire Multimode Plate Reader (PerkinElmer, Massachusetts, USA). When stated, for IC50 calculation, dose-response curves fitted using the nonlin fit (variable slope) analysis in GraphPad Prism software (GraphPad Software, California, USA).
row,SMILES,IC50 [µM]
1,"CC1(C)CN2C(CSC3=N[C@H]4COC[C@H]4N3)=CSC2=N1 [Example 25, (3aR,6aS)-2-(((6,6-dimethyl-5,6-dihydroinidazo[2,1-b]thiazol-3-yl)methyl)thio)-3a,4,6,6a-tetrahydro-1H-furo[3,4-d]imidazole dihydrochloride]",≥ 31
2,"C1=C(CSC2=NCCN2)N2CCCN=C2S1 [Example 26, 3-(((4,5-dihydro-1H-imidazol-2-yl)thio)methyl)-6,7-dihydro-5H-thiazolo[3,2-a]pyrimidine dihydrochloride]",≥ 31
3,"C1=C(CSC2=NCCN2)N2CCCCN=C2S1 [Example 27, 3-(((4,5-dihydro-1H-imidazol-2-yl)thio)methyl)-5,6,7,8-tetrahydrothiazolo[3,2-a][1,3]diazepine dihydrochloride]",≥ 31
4,"CC1(C)CN=C(SCC2=CSC3=NC(C)(C)CN23)NC1 [Example 28, 3-(((5,5-dimethyl-1,4,5,6-tetrahydropyrimidin-2-yl)thio)methyl)-6,6-dimethyl-5,6-dihydroimidazo[2,1-b]thiazole dihydrochloride]",≥ 31
5,"C1=C(CSC2=NCCCN2)N2CCCN=C2S1 [Example 29, 3-(((1,4,5,6-tetrahydropyrimidin-2-yl)thio)methyl)-6,7-dihydro-5H-thiazolo[3,2-a]pyrimidine dihydrochloride]",≥ 31
6,"CCCCC1CN=C(SCC2=CSC3=NCCN23)N1 (stereo not drawn) [Example 30, 3-(((5-butyl-4,5-dihydro-1H-imidazol-2-yl)thio)methyl)-5,6-dihydroimidazo[2,1-b]thiazole dihydrochloride]",≤ 10
7,"CC1(C)CN=C(SCCCc2cccnc2)N1 [Example 31, 3-(3-((5,5-dimethyl-4,5-dihydro-1H-imidazol-2-yl)thio)propyl)pyridine dihydrochloride]",≥ 31
8,"CC1(C)CN=C(SCc2cccnc2)N1 [Example 32, 3-(((5,5-dimethyl-4,5-dihydro-1H-imidazol-2-yl)thio)methyl)pyridine dihydrochloride]",≥ 31
9,"CC1(C)CN=C(SCC2=CSC3=NC4(CC4)CN23)N1 [Example 33, dihydrochloride]",≥ 31
10,"CC1(C)CN=C2SC=C(CSC3=NCC(C)(C)N3)N2C1 [Example 34, 3-(((5,5-dimethyl-4,5-dihydro-1H-imidazol-2-yl)thio)methyl)-6,6-dimethyl-6,7-dihydro-5H-thiazolo[3,2-a]pyrimidine dihydrochloride]",≥ 31
11,"C1=C(CSC2=NCCCN2)N2CCN=C2S1 [Example 35, 3-(((1,4,5,6-tetrahydropyrimidin-2-yl)thio)methyl)-5,6-dihydroimidazo[2,1-b]thiazole dihydrochloride]",≥ 31
12,"C1=C(CSC2=NCCCN2)N2CCCCN=C2S1 [Example 37, 3-(((1,4,5,6-tetrahydropyrimidin-2-yl)thio)methyl)-5,6,7,8-tetrahydrothiazolo[3,2-a][1,3]diazepine dihydrochloride]",≥ 31
13,"CC1(C)CN=C(SCCCn2ccnc2)N1 [Example 38, 1-(3-((5,5-dimethyl-4,5-dihydro-1H-imidazol-2-yl)thio)propyl)-1H-imidazole dihydrochloride]",≥ 31
14,"CC1(C)CN2C(CSC3=NCC4(CCCCC4)N3)=CSC2=N1 [Example 39, 3-(((1,3-diazaspiro[4.5]dec-2-en-2-yl)thio)methyl)-6,6-dimethyl-5,6-dihydroimidazo[2,1-b]thiazole dihydrochloride]",10 to 31
15,"CC1(C)CN2C(CSC3=NCC4CCCCC4N3)=CSC2=N1 (stereo not drawn) [Example 40, 6,6-dimethyl-3-(((1,4,4a,5,6,7,8,8a-octahydroquinazolin-2-yl)thio)methyl)-5,6-dihydroimidazo[2,1-b]thiazole dihydrochloride]",≥ 31
16,"CC1(C)CN=C(SCCc2cccc3ncccc23)N1 [Example 41, 5-(2-((5,5-dimethyl-4,5-dihydro-1H-imidazol-2-yl)thio)ethyl)quinoline dihydrochloride]",≥ 31
17,"CC1(C)CN=C(SCC2=CSC3=NC4(CCCCC4)CN23)N1 [Example 42, 3′-(((5,5-dimethyl-4,5-dihydro-1H-imidazol-2-yl)thio)methyl)-5′H-spiro[cyclohexane-1,6′-imidazo[2,1-b]thiazole] dihydrochloride]",10 to 31

row,SMILES,IC50 [µM]
1,"CC1(C)CN=C(SCC2=CSC3=NC4CCCCC4CN23)N1 (stereo not drawn) [Example 43, 3-(((5,5-dimethyl-4,5-dihydro-1H-imidazol-2-yl)thio)methyl)-5a,6,7,8,9,9a-hexahydro-5H-thiazolo[2,3-b]quinazoline dihydrochloride]",10 to 31
2,"C1=C(CSC2=N[C@@H]3CCCC[C@H]3N2)N2CCN=C2S1 [Example 44, 3-((((3aR,7aR)-3a,4,5,6,7,7a-hexahydro-1H-benzo[d]imidazol-2-yl)thio)methyl)-5,6-dihydroimidazo[2,1-b]thiazole dihydrochloride]",≤ 10
3,"C1=C(CSC2=N[C@@H]3CCCC[C@H]3N2)N2CCCN=C2S1 [Example 45, 3-((((3aR,7aR)-3a,4,5,6,7,7a-hexahydro-1H-benzo[d]imidazol-2-yl)thio)methyl)-6,7-dihydro-5H-thiazolo[3,2-a]pyrimidine dihydrochloride]",≥ 31
4,"C1=C(CSC2=N[C@@H]3CCCC[C@H]3N2)N2CCCCN=C2S1 [Example 46, 3-((((3aR,7aR)-3a,4,5,6,7,7a-hexahydro-1H-benzo[d]imidazol-2-yl)thio)methyl)-5,6,7,8-tetrahydrothiazolo[3,2-a][1,3]diazepine dihydrochloride]",≥ 31
5,"CC1(C)CN=C(SCCn2ccnc2)N1 [Example 47, 1-(2-((5,5-dimethyl-4,5-dihydro-1H-imidazol-2-yl)thio)ethyl)-1H-imidazole dihydrochloride]",≥ 31
6,"C1=C(CSC2=NCC(Cc3ccccc3)N2)N2CCCN=C2S1 (stereo not drawn) [Example 48, 3-(((5-benzyl-4,5-dihydro-1H-imidazol-2-yl)thio)methyl)-6,7-dihydro-5H-thiazolo[3,2-a]pyrimidine dihydrochloride]",≤ 10
7,"CC(C)C1CN=C(SCC2=CSC3=NC(C)(C)CN23)N1 (stereo not drawn) [Example 49, 3-(((5-isopropyl-4,5-dihydro-1H-imidazol-2-yl)thio)methyl)-6,6-dimethyl-5,6-dihydroimidazo[2,1-b]thiazole dihydrochloride]",10 to 31
8,"CC1(C)CN=C(SCC2=CSC3=NC(c4ccccc4)CN23)N1 (stereo not drawn) [Example 50, 3-(((5,5-dimethyl-4,5-dihydro-1H-imidazol-2-yl)thio)methyl)-6-phenyl-5,6-dihydroimidazo[2,1-b]thiazole dihydrochloride]",10 to 31
9,"CCCCC1CN=C(SCC2=CSC3=NC(Cc4ccccc4)CN23)N1 (stereo not drawn) [Example 51, 6-benzyl-3-(((5-butyl-4,5-dihydro-1H-imidazol-2-yl)thio)methyl)-5,6-dihydroinidazo[2,1-b]thiazole dihydrochloride]",≤ 10
10,"CC(C)C1CN2C(CSC3=NCC(C)(C)N3)=CSC2=N1 (stereo not drawn) [Example 52, 3-(((5,5-dimethyl-4,5-dihydro-1H-imidazol-2-yl)thio)methyl)-6-isopropyl-5,6-dihydroimidazo[2,1-b]thiazole dihydrochloride]",10 to 31
11,"CC1(C)CN2C(CSC3=NCC(c4ccccc4)N3)=CSC2=N1 (stereo not drawn) [Example 53, 6,6-dimethyl-3-(((4-phenyl-4,5-dihydro-1H-imidazol-2-yl)thio)methyl)-5,6-dihydroimidazo[2,1-b]thiazole dihydrochloride]",≤ 10
12,"CN1CCCN=C1SCC1=CSC2=NC(C)(C)CN12 [Example 57, 6,6-dimethyl-3-(((1-methyl-1,4,5,6-tetrahydropyrimidin-2-yl)thio)methyl)-5,6-dihydroimidazo[2,1-b]thiazole dihydrochloride]",≥ 31
13,"CC(C)[C@@H]1N=C(SCC2=CSC3=NC(C)(C)CN23)N[C@H]1C(C)C [Example 58, 3-((((4S,5S)-4,5-diisopropyl-4,5-dihydro-1H-imidazol-2-yl)thio)methyl)-6,6-dimethyl-5,6-dihydroimidazo[2,1-b]thiazole dihydrochloride]",≥ 31
14,"C1=C(CSC2=NCC(Cc3ccccc3)N2)N2CC(Cc3ccccc3)N=C2S1 (stereo not drawn) [Example 60, 6-benzyl-3-(((5-benzyl-4,5-dihydro-1H-imidazol-2-yl)thio)methyl)-5,6-dihydroimidazo[2,1-b]thiazole dihydrochloride]",≤ 10
15,"C1=C(CSC2=N[C@@H]3CCCC[C@H]3N2)N2CC(Cc3ccccc3)N=C2S1 (stereo partly drawn) [Example 61, 6-benzyl-3-((((3aR,7aR)-3a,4,5,6,7,7a-hexahydro-1H-benzo[d]imidazol-2-yl)thio)methyl)-5,6-dihydroimidazo[2,1-b]thiazole dihydrochloride]",≤ 10
16,"c1ccc(CC2CN=C(SCCc3cccnc3)N2)cc1 (stereo not drawn) [Example 65, 3-(2-((5-benzyl-4,5-dihydro-1H-imidazol-2-yl)thio)ethyl)pyridine dihydrochloride]",≥ 31
